In patent publication US20010053796A1, “Delta-aminolevulinic acid for prevention and treatment of infection microorganisms and parasite” (priority 2000, published 2001):
Marks after values point to notes of the source that are not given here.

What was measured:
Pseudomonas sp. [1] = experiment: Prevention effect for artificial infection (abdominal injection of bacteria); assay type: in vivo, Sebastes schlegeli; conditions: for Mortality during Cultivation: dead of 20 fish
Description: (§1) The water temperature was maintained at 20° C. (±2° C. ) throughout the experiment.
(§2) As the same method of above Experiment 1, fishes of both control group and experiment group were prepared and artificially infected by direct abdominal injection of Edwardsiella tarda 10^5 CFU per 1 fish. Each experimental fish was moved to fish tanks for monitoring and monitored for mortality according to infection for 2 weeks and viability after 2 weeks.
(§3) Bastardhalibut and Sebastes schlegeli were infected by Pseudomonas sp. through abdominal injection with the same method of fish breeding; δ-aminolevulinic acid treatment and artificial infection carried out in Experiment 1 and 2. Each experimental fish was moved to fish tanks for monitoring and monitored for mortality according to infection for 2 weeks.

Vibrio anguillarum [2] = experiment: Treatment effect of infected fry by oral administration in feed; assay type: in vivo, Bastardhalibut; conditions: 50 fish
Staphylococcus sp. = experiment: as above; assay type: in vivo, Bastardhalibut; conditions: 50 fish
Description: (§4) In this example, fry of Bastardhalibut and Sebastes schlegeli (mean body weight 2 g), 50 per each breeding tank, were preliminary-bred for 1 week and stabilized. […] The artificial infection methods were carried out through the digestion method. Pathogenic organisms were applied into fish tanks and introduced into seawater for an hour, wherein the concentration of organisms adjusted to 10^4 CFU/mL. Treatment conditions are as follows; after artificial infection, infected fish were moved to fish tanks and kept in the infection period for 3 days. […] The fish were bred for 2 weeks after exchanging with clean seawater and the mortality of fish according to infection was monitored. In the control groups, after each bacteria were identically infected through digestion method, mortality of Bastardhalibut and Sebastes schlegeli according to bacteria infection was identified while breeding with marketing assorted feed without δ-aminolevulinic acid. As a result of this experiment, δ-aminolevulinic acid-treated groups have shown high viability in both Bastardhalibut (Table 20˜Table 23) and Sebastes schlegeli (Table 24˜Table 27).

Pseudomonas sp. [3] = experiment: as above; assay type: in vivo, Bastardhalibut; conditions: 50 fish
Description: as §4

Edwardsiella tarda [4] = experiment: as above; assay type: in vivo, Bastardhalibut; conditions: 50 fish
Description: as §4

Staphylococcus epidermis = experiment: as above; assay type: in vivo, Bastardhalibut; conditions: 50 fish
Description: as §4

Streptococcus sp. = experiment: as above; assay type: in vivo, Bastardhalibut; conditions: 50 fish
Description: as §4

Pseudomonas sp. [5] = experiment: Prevention effect for artificial infection (abdominal injection of bacteria); assay type: in vivo, Bastardhalibut; conditions: for Mortality during Cultivation: dead of 20 fish
Description: as §1, §2, §3

Edwardsiella tarda [6] = experiment: Treatment of Edwardsiella bacteria-infected fish in a fish farm; assay type: in vivo, flatfish
From the text: Infected fish cultivated in the terrestrial fish tank were found in a fish farm, where flatfish (mean weight 11 g) were dying by spontaneous attack. The main source of infection was Edwardsiella tardaa. About 30˜40% of cumulative mortality per cultivating tank has shown after 5 days since the mortality started. […] On the first day, 0.1 ppm δ-aminolevulinic acid was digestion-treated in two tanks for 2 hrs and on the second and third day, 0.01 ppm δ-aminolevulinic acid was digested for 2 hrs. They were then observed, during the water was exchanged. δ-aminolevulinic acid digestion-treated tanks (about 3,000 fish) has maintained 40% cumulative mortality for 1 week after treatment, while δ-aminolevulinic acid non-treated tanks has shown 60% cumulative mortality and progressive disease was observed, more reporting 20% cumulative mortality thereafter.

marine birnavirus (MABV) = experiment: Change of virus infection value (TCID50) in culture cells; assay type: cell-based; conditions: for Infection value by MABV: 8 mM
From the text: In this experiment, change of infection value by virus according to δ-aminolevulinic acid treatment was examined by TCID50 using fish cell line for marine birnavirus (MABV) which infects major marine cultivating fish species, Bastardhalibut, Pagrus major and Sebastes schlegeli and acts as a cause for mass mortality. The virus used in this experiment was isolated from Bastardhalibut of a fish farm nearby Yeosu. Virus infection value was checked in CHSE-214 cell and then used as experimental virus solution. Virus incubation solution and δ-aminolevulinic acid diluted solution were combined with same amount (8 mL) and reacted for 30 min. and then, inoculated to culture cell and incubated at 20° C. Temporary change of virus infection value was compared with that of HBSS reaction virus solution (control).

Vibrio anguillarum [7] = experiment: Prevention effect for artificial infection (abdominal injection of bacteria); assay type: in vivo, Sebastes schlegeli; conditions: for Mortality during Cultivation: dead of 20 fish
Description: as §1, §2
Bastardhalibut and Sebastes schlegeli were infected by Vibrio anguillarum through abdominal injection with the same method of fish breeding; δ-aminolevulinic acid treatment and artificial infection carried out in Experiment 1 and 2.

[8] = orally, 1.0 ppm in feed, Sebastes schlegeli
[9] = orally, 10 ppm in feed, Sebastes schlegeli
[10] = orally, 100 ppm in feed, Sebastes schlegeli
[11] = to fish tanks, 0.01 ppm, Sebastes schlegeli
[12] = to fish tanks, 0.1 ppm, Sebastes schlegeli
[13] = to fish tanks, 1.0 ppm, Sebastes schlegeli
[14] = feed 0.1 ppm from 4th day of infection
[15] = feed 1.0 ppm from 4th day of infection
[16] = feed 50 ppm from 4th day of infection
[17] = feed 100 ppm from 4th day of infection
[18] = orally, 1.0 ppm in feed, Bastardhalibut
[19] = orally, 10 ppm in feed, Bastardhalibut
[20] = orally, 100 ppm in feed, Bastardhalibut
[21] = to fish tanks, 0.01 ppm, Bastardhalibut
[22] = to fish tanks, 0.1 ppm, Bastardhalibut
[23] = to fish tanks, 1.0 ppm, Bastardhalibut

Question: What does the source list for NCC(=O)CCC(=O)O [δ-aminolevulinic acid]?
Answer: Viability (Pseudomonas sp. [1]; orally, 0.1 ppm in feed): 60%; Mortality during Cultivation (Pseudomonas sp. [1]; orally, 0.1 ppm in feed): 8; Viability (Pseudomonas sp. [1]; [8]): 60%; Mortality during Cultivation (Pseudomonas sp. [1]; [8]): 8; Viability (Pseudomonas sp. [1]; [9]): 85%; Mortality during Cultivation (Pseudomonas sp. [1]; [9]): 3; Viability (Pseudomonas sp. [1]; [10]): 85%; Mortality during Cultivation (Pseudomonas sp. [1]; [10]): 3; Viability (Pseudomonas sp. [1]; [11]): 55%; Mortality during Cultivation (Pseudomonas sp. [1]; [11]): 9; Viability (Pseudomonas sp. [1]; [12]): 55%; Mortality during Cultivation (Pseudomonas sp. [1]; [12]): 9; Viability (Pseudomonas sp. [1]; [13]): 85%; Mortality during Cultivation (Pseudomonas sp. [1]; [13]): 3; Viability (Pseudomonas sp. [1]; to fish tanks, 10 ppm): 90%; Mortality during Cultivation (Pseudomonas sp. [1]; to fish tanks, 10 ppm): 2; Viability (Vibrio anguillarum [2]; [14]): 44%; Viability (Vibrio anguillarum [2]; [15]): 72%; Viability (Vibrio anguillarum [2]; [16]): 90%; Viability (Vibrio anguillarum [2]; [17]): 88%; Viability (Staphylococcus sp.; [14]): 42%; Viability (Staphylococcus sp.; [15]): 72%; Viability (Staphylococcus sp.; [16]): 92%; Viability (Staphylococcus sp.; [17]): 86%; Viability (Pseudomonas sp. [3]; [14]): 42%; Viability (Pseudomonas sp. [3]; [15]): 68%; Viability (Pseudomonas sp. [3]; [16]): 88%; Viability (Pseudomonas sp. [3]; [17]): 82%; Viability (Edwardsiella tarda [4]; [14]): 42%; Viability (Edwardsiella tarda [4]; [15]): 68%; Viability (Edwardsiella tarda [4]; [16]): 92%; Viability (Edwardsiella tarda [4]; [17]): 82%; Viability (Staphylococcus epidermis; [14]): 42%; Viability (Staphylococcus epidermis; [15]): 68%; Viability (Staphylococcus epidermis; [16]): 94%; Viability (Staphylococcus epidermis; [17]): 86%; Viability (Streptococcus sp.; [14]): 36%; Viability (Streptococcus sp.; [15]): 74%; Viability (Streptococcus sp.; [16]): 90%; Viability (Streptococcus sp.; [17]): 86%; Viability (Pseudomonas sp. [5]; orally, 0.1 ppm in feed): 60%; Mortality during Cultivation (Pseudomonas sp. [5]; orally, 0.1 ppm in feed): 8; Viability (Pseudomonas sp. [5]; [18]): 55%; Mortality during Cultivation (Pseudomonas sp. [5]; [18]): 9; Viability (Pseudomonas sp. [5]; [19]): 90%; Mortality during Cultivation (Pseudomonas sp. [5]; [19]): 2; Viability (Pseudomonas sp. [5]; [20]): 90%; Mortality during Cultivation (Pseudomonas sp. [5]; [20]): 2; Viability (Pseudomonas sp. [5]; [21]): 60%; Mortality during Cultivation (Pseudomonas sp. [5]; [21]): 8; Viability (Pseudomonas sp. [5]; [22]): 70%; Mortality during Cultivation (Pseudomonas sp. [5]; [22]): 6; Viability (Pseudomonas sp. [5]; [23]): 90%; Mortality during Cultivation (Pseudomonas sp. [5]; [23]): 2; Viability (Pseudomonas sp. [5]; to fish tanks, 10 ppm): 90%; Mortality during Cultivation (Pseudomonas sp. [5]; to fish tanks, 10 ppm): 2; Cumulative mortality (Edwardsiella tarda [6]; digestion 0.1 ppm day 1, 0.01 ppm days 2 and 3, 2 hrs, maintained for 1 week after treatment): 40%; Cumulative mortality (Edwardsiella tarda [6]; digestion-treated groups in progressive disease, end result (non-treated 80%)): about 40%; Infection value by MABV (marine birnavirus (MABV); 0 days after inoculation): 4.3* Log TCID50/mL; Infection value by MABV (marine birnavirus (MABV); 1 day after inoculation): 3.8 Log TCID50/mL; Infection value by MABV (marine birnavirus (MABV); 3 days after inoculation): 3.5 Log TCID50/mL; Infection value by MABV (marine birnavirus (MABV); 5 days after inoculation): 2.3 Log TCID50/mL; Infection value by MABV (marine birnavirus (MABV); 7 days after inoculation): <1.8 Log TCID50/mL; effect on MABV within culture cell system (marine birnavirus (MABV); reacted 30 min before inoculation): inactivated; Viability (Vibrio anguillarum [7]; orally, 0.1 ppm in feed): 60%; Mortality during Cultivation (Vibrio anguillarum [7]; orally, 0.1 ppm in feed): 8; Viability (Vibrio anguillarum [7]; orally, 1.0 ppm in feed): 65%; Mortality during Cultivation (Vibrio anguillarum [7]; orally, 1.0 ppm in feed): 7; Viability (Vibrio anguillarum [7]; orally, 10 ppm in feed): 80%; Mortality during Cultivation (Vibrio anguillarum [7]; orally, 10 ppm in feed): 4; Viability (Vibrio anguillarum [7]; orally, 100 ppm in feed): 90%; Mortality during Cultivation (Vibrio anguillarum [7]; orally, 100 ppm in feed): 2; Viability (Vibrio anguillarum [7]; to fish tanks, 0.01 ppm): 60%; Mortality during Cultivation (Vibrio anguillarum [7]; to fish tanks, 0.01 ppm): 8; Viability (Vibrio anguillarum [7]; to fish tanks, 0.1 ppm): 60%; Mortality during Cultivation (Vibrio anguillarum [7]; to fish tanks, 0.1 ppm): 8; Viability (Vibrio anguillarum [7]; to fish tanks, 1.0 ppm): 85%; Mortality during Cultivation (Vibrio anguillarum [7]; to fish tanks, 1.0 ppm): 1; Viability (Vibrio anguillarum [7]; to fish tanks, 10 ppm): 90%; Mortality during Cultivation (Vibrio anguillarum [7]; to fish tanks, 10 ppm): 2
